How the values were obtained:
Format in all cases: cell-based
Human GPR120 short form [1] = target: T1, Human GPR120 short form (Homo sapiens, UniProt Q5NUL3); test: Human GPR120 calcium flux assay, Procedure Calcium A; settings: HEK-293 cells expressing human GPR120 short form, 2500 cells/well, FLIPR
T1 construct: expressed in transfected cells
T1 sequence (Q5NUL3 1-361): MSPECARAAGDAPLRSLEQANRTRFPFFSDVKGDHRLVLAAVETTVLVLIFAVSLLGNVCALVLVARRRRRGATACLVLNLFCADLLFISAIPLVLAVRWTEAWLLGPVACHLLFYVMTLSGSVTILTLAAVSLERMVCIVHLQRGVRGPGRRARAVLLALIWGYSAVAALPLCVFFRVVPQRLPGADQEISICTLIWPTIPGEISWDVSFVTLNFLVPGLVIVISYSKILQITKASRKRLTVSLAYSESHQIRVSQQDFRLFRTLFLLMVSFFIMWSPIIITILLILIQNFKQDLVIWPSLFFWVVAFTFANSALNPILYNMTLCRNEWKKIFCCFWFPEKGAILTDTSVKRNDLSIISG
Summary of the method: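 HEK293 cells stably expressing the human GPR120 short splice variant (NM_001195755.1) were seeded at 2500 cells/well, serum-starved 1 h and loaded with Fluo-4 NW plus probenecid. Compounds (100–0.012 μM solutions, 0.2% final DMSO) were added, and FLIPR calcium flux was read for 300 s. EC50 came from a variable-slope fit (Hill <2) of Fmax−Fmin.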

[2] = target: T2, long form of human GPR120 (Homo sapiens, UniProt Q5NUL3); test: Human GPR120 DiscoveRx PathHunter β-Arrestin assay, Procedure β-arrestin A; settings: PathHunter CHO-K1 GPR120 β-Arrestin cell line, 3000 cells per well
T2 construct: host or cells: PathHunter CHO-K1 GPR120 β-Arrestin Cell Line
From the text: (§1) The binding of an agonist (medium/long chain fatty acids or small molecule agonists) to the G-protein-coupled receptor GPR120 activates phospholipase C, leading to release of intracellular Ca^+2 through the generation of inositol 1,4,5-trisphosphate (InsP3 or IP3). GPR120 activation can also trigger intracellular signaling via recruitment of β-Arrestin. In the present method, agonist-induced activation of the human GPR120 receptor is monitored through the use of PathHunter CHO-K1 GPR120 β-Arrestin Cell Line engineered by DiscoveRx, as detailed below. The cell lines are designed to co-express both the ProLink/Enzyme Donor (PK)-tagged GPCR and the Enzyme […] (EA)-tagged Beta-Arrestin fusion proteins. Upon GPR120 receptor stimulation/activation, the EA-tagged β-Arrestin portion is translocated to the tagged receptor, where the two enzyme fragments are brought within close proximity. Under these conditions, these fragments can interact and form an active Beta-gal enzyme complex through Enzyme Fragment Complementation (EFC). This active Beta-gal complex can enzymatically hydrolyse the substrate to produce a detectable light signal; therefore, activation as a function of agonist concentration can be expressed as an EC50 value to determine relative compound activities. This in vitro assay therefore serves to assess compound agonist activity of the GPR120.
In Procedure β-arrestin A, the cell used were PathHunter CHO-K1 GPR120 β-Arrestin Cell Line, expressing the long form of human GPR120 (Genbank accession number NM_181745), with 3000 cells per well.
(§2) The selected CHO-K1 GPR120 β-Arrestin cells were cultured in Ham's F12 media supplemented with 10% fetal bovine serum (FBS), 1% Glutamine, 1×p/s, 800 μg/ml G418 and 300 μg/ml Hygromycin B (for selection). Cell stocks were maintained and grown in a sub-confluent state using standard cell culture procedures. The day before the experiment, the cells were harvested with non-enzymatic cell dissociation buffer and re-suspended in complete growth media at the desired concentration. A Corning 384-plate was then seeded with the proper number of cells in a volume of 25 μL, per well. The seeded plates were incubated overnight at 37° C.
(§3) On the day of the experiment, the Assay Buffer containing (a) HBSS with Ca^++ and Mg^++, (b) 20 mM HEPES, and (c) 0.1% BSA stabilizer (pH 7.4) was prepared. The growth medium was gently removed from the cell plates and 20 μL of Assay Buffer added to each well. The plate was then incubated at 37° C. for 60 mins. Test compounds were serially diluted in Assay Buffer to desired concentrations (more particularly, to one or more of the following μM concentrations: 25 μM, 12.5 μM, 6.25 μM, 3.125 μM, 1.562 μM, 0.781 μM, 0.391 μM, 0.195 μM, 0.098 μM, 0.049 μM, 0.024 μM, 0.012 μM). Five μl of compound dilution was then added to each well and the plate incubated at 37° C. for 90 mins. The detection reagents were prepared according to the manufacture's instruction. Twelve μL of the detection reagents were added to each well and the plate incubated at room temperature for 60 mins.
(§4) The plates were read on an EnVision instrument, using Protocol name: Luminescence, Plate type: 384 Costar, Measurement height: 3 mm, Measurement time: 1 s, Aperture: 384 Plate aperture. The % activity relative to the positive control was calculated using the following equation:
(§5) The % Activity values were plotted versus the concentration of test compound and fitted to a sigmoidal dose-response curve with a Hill slope=1 (fixed value) using nonlinear regression with GraphPad Prism 5.0 to calculate the EC50 values. The Fitting Equation was: Y=Bottom+(Top−Bottom)/(1+10^((LogEC50−X)*HillSlope)), where X is the log of the concentration and Y is the response.

Human GPR120 short form [3] = target: T1, Human GPR120 short form; test: Human GPR120 calcium flux assay, Procedure Calcium B; settings: HEK-293 cells expressing human GPR120 short form, 4200 cells/well, FLIPR
[4] = target: T3, short form of the GPR120 receptor (Homo sapiens, UniProt Q5NUL3); test: Human GPR120 DiscoveRx PathHunter β-Arrestin assay, Procedure β-arrestin B; settings: PathHunter CHO-K1 GPR120S β-Arrestin cell line, 5000 cells/well
T3 construct: host or cells: PathHunter CHO-K1 GPR120S β-Arrestin Cell Line
From the text: as §1
In Procedure β-arrestin B the cells used were PathHunter CHO-K1 GPR120S β-Arrestin Cell Line, expressing the short form of the GPR120 receptor (Accession #NM_181745), with 5000 cells/well.
as §2, §3, §4, §5

T2 sequence (Q5NUL3 1-377 isoform Q5NUL3-1): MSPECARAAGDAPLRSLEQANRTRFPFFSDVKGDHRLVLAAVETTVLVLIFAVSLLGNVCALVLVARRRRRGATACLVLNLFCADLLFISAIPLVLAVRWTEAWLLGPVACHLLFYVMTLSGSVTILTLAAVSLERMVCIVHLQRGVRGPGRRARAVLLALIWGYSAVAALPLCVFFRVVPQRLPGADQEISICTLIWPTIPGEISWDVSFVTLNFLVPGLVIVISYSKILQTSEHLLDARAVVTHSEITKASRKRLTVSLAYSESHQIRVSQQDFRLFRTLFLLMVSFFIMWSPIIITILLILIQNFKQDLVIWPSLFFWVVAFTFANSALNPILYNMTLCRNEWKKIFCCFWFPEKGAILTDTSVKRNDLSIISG
T2 sequence (P32121 whole entry partner): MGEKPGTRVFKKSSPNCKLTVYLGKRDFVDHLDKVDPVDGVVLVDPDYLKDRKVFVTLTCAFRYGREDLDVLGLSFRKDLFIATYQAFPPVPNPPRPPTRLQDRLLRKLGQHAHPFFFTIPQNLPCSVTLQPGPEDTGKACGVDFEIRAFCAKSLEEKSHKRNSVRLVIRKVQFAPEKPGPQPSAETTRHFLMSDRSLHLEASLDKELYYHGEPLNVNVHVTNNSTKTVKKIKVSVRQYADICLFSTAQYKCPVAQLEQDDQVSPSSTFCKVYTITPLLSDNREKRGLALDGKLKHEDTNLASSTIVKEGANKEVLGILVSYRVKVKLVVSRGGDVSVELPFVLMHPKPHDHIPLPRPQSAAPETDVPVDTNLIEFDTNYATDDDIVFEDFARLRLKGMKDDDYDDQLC
T3 sequence (P32121 whole entry partner, one chain of several): as the sequence (P32121 whole entry partner) above

Compound	EC50 (Human GPR120 short form [1]) [µM]	EC50 [2] [µM]	EC50 (Human GPR120 short form [3]) [µM]	EC50 [4] [µM]
COc1ccc(-n2ccc(C(F)(F)F)c2COc2c(F)cc(CCCO)cc2F)cc1 [Compound 31, 3-(3,5-Difluoro-4-{[1-(4-methoxyphenyl)-3-(trifluoromethyl)-1H-pyrrol-2-yl]methoxy}phenyl)propan-1-ol]	0.222	0.061	0.067	–
CCc1ccc(-n2ccc(C(F)(F)F)c2COc2c(F)cc(CCC(=O)O)cc2F)cc1 [Compound 32, 3-(4-[[1-(4-ethylphenyl)-3-(trifluoromethyl)-1H-pyrrol-2-yl]methoxy]-3,5-difluorophenyl)propanoic acid]	0.402	0.357	0.117	–
CCc1ccc(-n2ccc(C(F)(F)F)c2COc2c(F)cc(CCCO)cc2F)cc1 [Compound 33, 3-(4-[[1-(4-ethylphenyl)-3-(trifluoromethyl)-1H-pyrrol-2-yl]methoxy]-3,5-difluoro-phenyl)propan-1-ol]	0.434	0.048	0.082	–
OCCCc1cc(F)c(OCc2c(C(F)(F)F)ccn2-c2ccccc2)c(F)c1 [Compound 35, 3-(3,5-difluoro-4-[[1-phenyl-3-(trifluoromethyl)-1H-pyrrol-2-yl]methoxy]phenyl)propan-1-ol]	0.507	0.201	0.063	–
CCc1ccc(-n2ccc(C(F)(F)F)c2COc2ccc(CCC(=O)O)c(C)c2C)cc1 [Compound 36, 3-(4-[[1-(4-ethylphenyl)-3-(trifluoromethyl)-1H-pyrrol-2-yl]methoxy]-2,3-dimethylphenyl)propanoic acid]	0.444	0.12	0.145	–
Cc1ccc(-n2ccc(C(F)(F)F)c2COc2c(F)cc(CCCO)cc2F)cc1 [Compound 37, 3-(3,5-difluoro-4-[[1-(4-methylphenyl)-3-(trifluoromethyl)-1H-pyrrol-2-yl]methoxy]phenyl)propan-1-ol]	0.119	0.016	0.028	–
O=C(O)CCc1cc(F)c(OCc2c(C(F)(F)F)ccn2-c2ccccc2)c(F)c1 [Compound 38, 3-(3,5-difluoro-4-((1-phenyl-3-(trifluoromethyl)-1H-pyrrol-2-yl)methoxy)phenyl)propanoic acid]	0.45	0.678	0.101	–
Cc1ccc(-n2ccc(C(F)(F)F)c2COc2ccc(CCC(=O)O)c(F)c2F)cc1 [Compound 42, 3-(2,3-difluoro-4-[[1-(4-methylphenyl)-3-(trifluoromethyl)-1H-pyrrol-2-yl]methoxy]phenyl)propanoic acid]	0.81	0.293	0.084	–
Cc1ccc(-n2ccc(C(F)(F)F)c2COc2ccc(CCC(=O)O)c(C)c2C)cc1 [Compound 43, 3-(2,3-dimethyl-4-[[1-(4-methylphenyl)-3-(trifluoromethyl)-1H-pyrrol-2-yl]methoxy]phenyl)propanoic acid]	0.558	0.359	0.063	–
Cc1ccc(-n2ccc(C(F)(F)F)c2COc2ccc(CCCO)c(F)c2F)cc1 [Compound 44, 3-(2,3-difluoro-4-[[1-(4-methylphenyl)-3-(trifluoromethyl)-1H-pyrrol-2-yl]methoxy]phenyl)propan-1-ol]	0.432	0.098	0.05	–
OCCCc1cc(F)c(OCc2c(C(F)(F)F)ccn2-c2ccc(Cl)cc2)c(F)c1 [Compound 46, 3-(4-{[1-(4-Chlorophenyl)-3-(trifluoromethyl)-1H-pyrrol-2-yl]methoxy}-3,5-difluorophenyl)propan-1-ol]	0.621	0.099	0.043	–
Cc1ccc(-n2ccc(C(F)(F)F)c2COc2ccc(CCCO)c(F)c2F)cn1 [Compound 47, 3-(2,3-difluoro-4-[[1-(6-methylpyridin-3-yl)-3-(trifluoromethyl)-1H-pyrrol-2-yl]methoxy]phenyl)propan-1-ol trifluoroacetic acid]	0.375	0.241	0.066	–
Cc1ccc(-n2ccc(C(F)(F)F)c2COc2c(F)cc(CCCO)cc2F)cn1 [Compound 48, 3-(3,5-difluoro-4-((1-(6-methylpyridin-3-yl)-3-(trifluoromethyl)-1H-pyrrol-2-yl)methoxy)phenyl)propan-1-ol trifluoroacetic acid]	0.098	0.098	0.03	–
Cc1ccc(-n2ccc(C(F)(F)F)c2COc2c(F)cc(CCC(=O)O)cc2F)cn1 [Compound 49, 3-(3,5-Difluoro-4-{[1-(6-methylpyridin-3-yl)-3-(trifluoromethyl)-1H-pyrrol-2-yl]methoxy}phenyl)propanoic acid]	0.87	1.24	0.289	–
CCc1ccc(-n2ccc(C(F)(F)F)c2COc2ccc(CCC(=O)O)c(F)c2F)cn1 [Compound 58, 3-(4-[[1-(6-ethylpyridin-3-yl)-3-(trifluoromethyl)-1H-pyrrol-2-yl]methoxy]-2,3-difluorophenyl)propanoic acid]	0.882	0.932	0.162	–
CC(Cc1cc(F)c(OCc2c(C(F)(F)F)ccn2-c2ccc(Cl)cc2)c(F)c1)C(=O)O (stereo not drawn) [Compound 59, 3-(4-[[1-(4-chlorophenyl)-3-(trifluoromethyl)-1H-pyrrol-2-yl]methoxy]-3,5-difluorophenyl)-2-methylpropanoic acid]	–	–	0.29	0.417
Cc1ccc(-n2ccc(C(F)(F)F)c2COc2c(F)cc(CC(C)C(=O)O)cc2F)cc1 (stereo not drawn) [Compound 60, 3-(3,5-difluoro-4-[[1-(4-methylphenyl)-3-(trifluoromethyl)-1H-pyrrol-2-yl]methoxy]phenyl)-2-methylpropanoic acid]	–	–	0.186	0.549
CCc1ccc(-n2ccc(C(F)(F)F)c2COc2c(F)cc(CC(C)C(=O)O)cc2F)cc1 (stereo not drawn) [Compound 61, 3-(4-[[1-(4-ethylphenyl)-3-(trifluoromethyl)-1H-pyrrol-2-yl]methoxy]-3,5-difluorophenyl)-2-methylpropanoic acid]	–	–	0.236	0.639
